Measured values as given in BigSolDB 2.1.

C[N+](C)(C)CCOC(=O)CCCC(=O)O.[Cl-]
Details	solubility (mole fraction)
in ethanol, 300.2 K	0.006
in ethanol, 310.6 K	0.008
in ethanol, 316.8 K	0.01
in ethanol, 318.5 K	0.012
in ethanol, 322.1 K	0.017
in ethanol, 325.4 K	0.023
in ethanol, 333.2 K	0.033
in ethanol, 335.8 K	0.039
in ethanol, 338.1 K	0.043
in ethanol, 339.4 K	0.055
in n-butanol, 304.8 K	0.001
in n-butanol, 318.7 K	0.0019
in n-butanol, 323.8 K	0.0022
in n-butanol, 327.5 K	0.0025
in n-butanol, 330.4 K	0.0029
in n-butanol, 335.1 K	0.0035
in n-butanol, 341 K	0.004
in n-propanol, 305.4 K	0.002
in n-propanol, 306.6 K	0.003
in n-propanol, 309.4 K	0.003
in n-propanol, 315.5 K	0.004
in n-propanol, 319.9 K	0.005
in n-propanol, 324.6 K	0.008
in n-propanol, 331.2 K	0.011
in n-propanol, 335.1 K	0.013
in n-propanol, 338.5 K	0.017

C[N+](C)(C)CCOC(=O)CCC(=O)O.[Cl-]
Details	solubility (mole fraction)
in ethanol, 299 K	0.008
in ethanol, 300.8 K	0.01
in ethanol, 305.5 K	0.015
in ethanol, 310.9 K	0.02
in ethanol, 313.1 K	0.026
in ethanol, 315.6 K	0.028
in ethanol, 320.5 K	0.038
in ethanol, 322 K	0.044
in n-butanol, 300.4 K	0.003
in n-butanol, 308.8 K	0.004
in n-butanol, 312.7 K	0.006
in n-butanol, 318.8 K	0.008
in n-butanol, 322.4 K	0.009
in n-butanol, 326.4 K	0.012
in n-butanol, 329.8 K	0.014
in n-butanol, 338.8 K	0.016
in n-propanol, 299.2 K	0.006
in n-propanol, 305.5 K	0.008
in n-propanol, 310.9 K	0.01
in n-propanol, 318.7 K	0.013
in n-propanol, 325.2 K	0.02
in n-propanol, 328.9 K	0.025
in n-propanol, 333.2 K	0.031
in n-propanol, 336.1 K	0.039

C[N+](C)(C)CCO.[Cl-]
Details	solubility (mole fraction)
in ethanol, 269.8 K	0.017
in ethanol, 276.4 K	0.027
in ethanol, 281.8 K	0.038
in ethanol, 287.2 K	0.054
in ethanol, 290.5 K	0.066
in ethanol, 292.4 K	0.072
in ethanol, 296.7 K	0.082
in ethanol, 300.5 K	0.089
in ethanol, 305.7 K	0.098
in ethanol, 308.4 K	0.109
in ethanol, 315.3 K	0.125
in ethanol, 321.6 K	0.138
in n-butanol, 314.6 K	0.031
in n-butanol, 321.2 K	0.049
in n-butanol, 328.6 K	0.068
in n-butanol, 340.8 K	0.086
in n-butanol, 346.4 K	0.109
in n-butanol, 349.4 K	0.131
in n-butanol, 352.9 K	0.147
in n-propanol, 288.9 K	0.015
in n-propanol, 295.7 K	0.023
in n-propanol, 302.3 K	0.039
in n-propanol, 308.7 K	0.05
in n-propanol, 309.6 K	0.059
in n-propanol, 316.5 K	0.073
in n-propanol, 323.2 K	0.086
in n-propanol, 330.7 K	0.108
in n-propanol, 335.3 K	0.129
in n-propanol, 338 K	0.153

CC(=O)[O-].C[N+](C)(C)CCO
Details	solubility (mole fraction)
in ethanol, 259.8 K	0.049
in ethanol, 261.8 K	0.067
in ethanol, 263.9 K	0.09
in ethanol, 265.7 K	0.112
in ethanol, 267.1 K	0.13
in ethanol, 267.8 K	0.143
in ethanol, 271.7 K	0.174
in ethanol, 272.1 K	0.184
in ethanol, 276.6 K	0.228
in ethanol, 278.5 K	0.252
in ethanol, 282.8 K	0.29
in ethanol, 286.1 K	0.319
in n-butanol, 268.2 K	0.023
in n-butanol, 273 K	0.048
in n-butanol, 276.9 K	0.074
in n-butanol, 279.9 K	0.102
in n-butanol, 281.8 K	0.136
in n-butanol, 284.2 K	0.172
in n-butanol, 287.7 K	0.209
in n-butanol, 290.4 K	0.233
in n-butanol, 295.4 K	0.293
in n-butanol, 297.7 K	0.317
in n-propanol, 263.8 K	0.0191
in n-propanol, 266.9 K	0.0394
in n-propanol, 270.3 K	0.062
in n-propanol, 273.1 K	0.0844
in n-propanol, 274.1 K	0.11
in n-propanol, 276 K	0.144
in n-propanol, 277.7 K	0.174
in n-propanol, 279.9 K	0.211
in n-propanol, 280.9 K	0.234
in n-propanol, 282.7 K	0.269
in n-propanol, 285.2 K	0.316
